Results from patent publication US11261201B2 (priority 2018, dated 2022).
In brackets after ≈: the same amount, converted by molar mass. Structures can show the parent of a compound that is named as a salt. Where two headings read alike, the source gives them in different places.

Tests used:
H37RvMA = experiment: Tuberculosis Alamar Blue/Resazurin assay (MIC); type: cell-based; settings: read-out: WT H37Rv MTB Activity
E. coli = experiment: Gram negative MIC protocol (OD600, LB, 24 h); settings: for MIC: Escherichia coli
Method: (§1) Overnight bacterial cultures were grown in LB with no added antibiotics at 37° C. with shaking. A 1:1000 dilution of these cultures into LB was exposed to concentration gradients of compounds in 96-well plates (100 μL per well assay volume). Resulting plates were incubated at 37° C. for 24 h without shaking, and OD600 was measured at the end of the incubation. MICs were determined as the lowest concentrations at which OD600 remained at baseline.

A. baumannii = experiment: Gram negative MIC protocol (OD600, LB, 24 h); settings: for MIC: Acinetobacter baumannii
Method: as §1

[1] = Mycobacterium tuberculosis, H37RV, WT H37Rv MTB
[2] = read-out: MIC E. coli delta-TolC LB Media, E. coli delta-TolC, LB media, OD600
[3] = read-out: MIC WT E. coli LB Media, WT E. coli, LB media, OD600
[4] = read-out: MIC A. baumannii LB Media, A. baumannii, LB media, 24 h, OD600
[5] = Mycobacterium tuberculosis, H37RV
[6] = read-out: MIC E. coli delta-TolC LB Media, E. coli delta-TolC strain, LB media, 24 h, OD600
[7] = read-out: MIC WT E. coli LB Media, wild-type E. coli, LB media, 24 h, OD600
[8] = read-out: MIC A. baumannii LB Media

| Structure (SMILES) | MIC (H37RvMA; [1]) [µM] | MIC (E. coli; [2]) [µM] | MIC (E. coli; [3]) [µM] | MIC (A. baumannii; [4]) [µM] | MIC (E. coli; [6]) [µM] | MIC (E. coli; [7]) [µM] | further results |
| --- | --- | --- | --- | --- | --- | --- | --- |
| CC(CC1CCOC1)NCc1ccccc1 (stereo not shown) [B31] | > 150 | > 150 | > 150 | > 150 | – | – | – |
| CC(Cc1cnn(C)c1)NCc1ccccc1 (stereo not shown) [B41] | – | > 150 | > 150 | > 150 | – | – | MIC (H37RvMA; [5]): > 150 µM |
| Ic1cccc(CNCCC2CCCCC2)c1 [B348] | 150 (≈ 51.5 µg/mL) | – | – | > 150 | > 150 | > 150 | – |
| O=C1Cc2ccccc2CN1CCC1CCCCCC1 [B422, 2-(2-cycloheptylethyl)-1,4-dihydroisoquinolin-3(2H)-one] | 2.5 (≈ 0.679 µg/mL) | 150 (≈ 40.7 µg/mL) | > 150 | > 150 | – | – | – |
| c1ccc(CNCCC2CCC2)cc1 [B30] | > 150 | > 150 | > 150 | > 150 | – | – | – |
| CC(CC1CCCCC1)NCc1ccccc1SCC1CN(C)C(=O)O1 (stereo not shown) [B407, 5-(((2-(((1-cyclohexylpropan-2-yl)amino)methyl)phenyl)thio)methyl)-3-methyl oxazolidin-2-one] | > 150 | 7 (≈ 2.64 µg/mL) | 150 (≈ 56.5 µg/mL) | > 150 | – | – | – |
| CC(NCc1ccccc1)C12C[C@H]3C[C@H](C1)C[C@@H](C2)C3 (stereo partly shown) [B80] | > 150 | 90 (≈ 24.2 µg/mL) | 250 (≈ 67.4 µg/mL) | > 150 | – | – | – |
| c1ccc(OCC2CCCO2)c(CNCCC2CCCCC2)c1 (stereo not shown) [B329, 2-cyclohexyl-N-(2-((tetrahydrofuran-2-yl)methoxy)benzyl)ethanamine] | > 150 | – | – | > 150 | 33 (≈ 10.5 µg/mL) | > 150 | – |
| CC(CC1CCCCC1)NCc1ccccc1NCc1ccccc1F (stereo not shown) [B397, 2-(((1-cyclohexylpropan-2-yl)amino)methyl)-N-(2-fluorobenzyl)aniline dihydrochloride] | 12.2 | – | – | > 150 | 5 | > 150 | – |
| CC(CC1CCCCC1)NCc1ccccc1OCC(=O)NCC1CCCO1 (stereo not shown) [B336] | > 150 | – | – | > 150 | 33 (≈ 12.8 µg/mL) | > 150 | – |
| CC(CC1CCCCC1)NCc1ccccc1OCC(=O)N1CCOCC1 (stereo not shown) [B309] | > 150 | – | – | > 150 | 33 (≈ 12.4 µg/mL) | > 150 | – |
| COCCNS(=O)(=O)Cc1ccccc1CNC(C)CC1CCCCC1 (stereo not shown) [B434, 1-(2-(((1-cyclohexylpropan-2-yl)amino)methyl)phenyl)-N-(2-methoxyethyl) methanesulfonamide] | > 150 | 4 (≈ 1.53 µg/mL) | 150 (≈ 57.4 µg/mL) | 150 (≈ 57.4 µg/mL) | – | – | – |
| CC(CC1CCCCC1)NCc1ccccc1OCC(C)(C)O (stereo not shown) [B343] | > 150 | – | – | 150 (≈ 47.9 µg/mL) | 4 (≈ 1.28 µg/mL) | 150 (≈ 47.9 µg/mL) | – |
| COCCCCOc1ccccc1CNC(C)CC1CCCCC1 (stereo not shown) [B277] | > 150 | – | – | > 150 | 4 (≈ 1.33 µg/mL) | > 150 | – |
| CCC(CC1CCCCC1)NCc1ccccc1F (stereo not shown) [B166, 1-cyclohexyl-N-(2-fluorobenzyl)butan-2-amine hydrochloride] | > 150 | 250 | > 300 | 300 | – | – | – |
| COC(=O)C1CCCCC1CCNCc1ccccc1 (stereo not shown) [B185] | > 150 | > 300 | > 300 | > 300 | – | – | – |
| Fc1cc(CCNCc2ccccc2)c2c(c1)COCO2 [B21] | > 150 | > 150 | > 150 | > 150 | – | – | – |
| C1=C(CNCc2ccccc2)CCCC1 [B63] | > 150 | > 150 | > 150 | > 150 | – | – | – |
| COc1cccc(COc2ccccc2CNC(C)CC2CCCCC2)c1 (stereo not shown) [B459, 1-cyclohexyl-N-(2-((3-methoxybenzyl)oxy)benzyl)propan-2-amine] | 17 (≈ 6.25 µg/mL) | 2 (≈ 0.735 µg/mL) | 55 (≈ 20.2 µg/mL) | 91 (≈ 33.4 µg/mL) | – | – | – |
| CC(CC1CCCCC1)NCc1ccccc1OCC(=O)NCC1CC1 (stereo not shown) [B284] | > 150 | – | – | > 150 | 7 (≈ 2.51 µg/mL) | > 150 | – |
| CC(C)(CNCc1ccccc1)C1=CCCC1 [B74] | > 150 | > 150 | > 150 | > 150 | – | – | – |
| CC(Cc1ccccc1)NCc1ccccc1 (stereo not shown) [B8] | – | > 150 | > 150 | – | – | – | MIC (H37RvMA; [5]): > 150 µM; MIC (A. baumannii; [8]): > 150 µM |
| c1cncc(-c2ccccc2CNCCC2CCCCC2)c1 [B231, 2-cyclohexyl-N-(2-(pyridin-3-yl)benzyl)ethanamine hydrochloride] | > 150 | – | – | > 300 | 54 | 300 | – |
| CC(CC1CCCCC1)NCc1ccccc1OCc1ccc(F)cc1 (stereo not shown) [B408, 1-cyclohexyl-N-(2-((4-fluorobenzyl)oxy)benzyl)propan-2-amine] | 12.2 (≈ 4.34 µg/mL) | 2 (≈ 0.711 µg/mL) | 55 (≈ 19.6 µg/mL) | 55 (≈ 19.6 µg/mL) | – | – | – |
| CC1CCCCC1CCN1Cc2ccccc2CC1=O (stereo not shown) [B415, 2-(2-(2-methylcyclohexyl)ethyl)-1,4-dihydroisoquinolin-3(2H)-one] | 1.26 (≈ 0.341 µg/mL) | 55 (≈ 14.9 µg/mL) | > 150 | > 150 | – | – | – |

| Structure (SMILES) | MIC (H37RvMA; [1]) [µM] | MIC (E. coli; [2]) [µM] | MIC (E. coli; [3]) [µM] | MIC (A. baumannii; [4]) [µM] | MIC (E. coli; [6]) [µM] | MIC (E. coli; [7]) [µM] | further results |
| --- | --- | --- | --- | --- | --- | --- | --- |
| CC(NCc1ccccc1)C1CCCCCC1 (stereo not shown) [B101] | > 150 | 40 (≈ 9.26 µg/mL) | 70 (≈ 16.2 µg/mL) | 150 (≈ 34.7 µg/mL) | – | – | – |
| c1ccc(CNCC2Cc3ccccc32)cc1 (stereo not shown) [B22] | > 150 | > 150 | > 150 | > 150 | – | – | – |
| Fc1ccc(C2CC2NCc2ccccc2)cc1F (stereo in doubt) [B211, (1S,2R)-N-benzyl-2-(3,4-difluorophenyl)cyclopropanamine hydrochloride] | – | – | – | 300 | 300 | > 300 | MIC (H37RvMA; [5]): > 150 µM |
| c1ccc(CNC2CC23CCCCC3)cc1 (stereo not shown) [B125] | > 150 | > 150 | > 150 | > 150 | – | – | – |
| COc1ccc(CNC(=O)COc2ccccc2CNC(C)CC2CCCCC2)cc1 (stereo not shown) [B303] | 91 (≈ 38.6 µg/mL) | – | – | > 150 | 7 (≈ 2.97 µg/mL) | > 150 | – |
| CC(CC1CCCCC1)NCc1ccccc1OC1C2CC3CC(C2)CC1C3 [B404, N-(2-(((1R,3S,5r,7r)-adamantan-2-yl)oxy)benzyl)-1-cyclohexylpropan-2-amine] | 20.2 (≈ 7.71 µg/mL) | 7 (≈ 2.67 µg/mL) | > 150 | 150 (≈ 57.2 µg/mL) | – | – | – |
| CC(/C=C/C1CCCCC1)NCc1ccccc1 (stereo not shown) [B219, (E)-N-benzyl-4-cyclohexylbut-3-en-2-amine] | > 150 | – | – | > 300 | > 300 | > 300 | – |
| CCOC(=O)COCCOc1ccccc1CNC(C)CC1CCCCC1 (stereo not shown) [B365] | > 150 | – | – | > 150 | 5 (≈ 1.89 µg/mL) | > 150 | – |
| CNCc1cccc(CNCCC2CCCCC2)c1 [B420, 2-cyclohexyl-N-(3-((methylamino)methyl)benzyl)ethan-1-amine] | > 150 | > 150 | > 150 | > 150 | – | – | – |
| CC1CCC(NC(=O)NS(=O)(=O)Cc2ccccc2CNC(C)CC2CCCCC2)CC1 (stereo not shown) [B450, 1-(2-(((1-cyclohexylpropan-2-yl)amino)methyl)phenyl)-N-((4-methylcyclohexyl)carbamoyl)methanesulfonamide] | 150 (≈ 69.6 µg/mL) | 150 (≈ 69.6 µg/mL) | > 150 | > 150 | – | – | – |
| CC(CC1CCCCC1)NCc1ccccc1O (stereo not shown) [B319] | – | – | – | – | 12 (≈ 2.97 µg/mL) | 33 (≈ 8.16 µg/mL) | MIC (H37RvMA; [5]): 150 µM (≈ 37.1 µg/mL); MIC (A. baumannii; [8]): > 150 µM |
| c1ccc(CNCC2CC3CCC2CC3)cc1 (stereo not shown) [B123] | 150 (≈ 34.4 µg/mL) | > 150 | > 150 | > 150 | – | – | – |
| CC(CC1CCCCC1)NCc1ccccc1OCCOCCO (stereo not shown) [B274] | > 150 | – | – | 150 (≈ 50.3 µg/mL) | 7 (≈ 2.35 µg/mL) | 150 (≈ 50.3 µg/mL) | – |
| NC(=O)C(CC1CCCCC1)NCc1ccccc1 (stereo not shown) [B205, 2-(benzylamino)-3-cyclohexylpropanamide hydrochloride] | > 150 | – | – | > 300 | > 300 | > 300 | – |
| CC(Cc1ncccn1)NCc1ccccc1 (stereo not shown) [B82] | – | > 150 | > 150 | > 150 | – | – | MIC (H37RvMA; [5]): > 150 µM |
| CC(CC1CCCCC1)NCc1ccccc1OCC(=O)N(C)C1CCCCC1 (stereo not shown) [B263] | 91 (≈ 36.5 µg/mL) | – | – | > 150 | 3 (≈ 1.2 µg/mL) | > 150 | – |
| c1ccc(CNC2(Cc3ccccc3)CC2)cc1 [B49] | > 150 | > 150 | > 150 | > 150 | – | – | – |
| c1ccc(CNCCC2CC3CCC2C3)cc1 (stereo not shown) [B146] | > 150 | 90 (≈ 20.6 µg/mL) | 150 (≈ 34.4 µg/mL) | 150 (≈ 34.4 µg/mL) | – | – | – |
| c1ccc(CNCC2C3CCc4ccccc4C32)cc1 (stereo not shown) [B45] | 91 (≈ 24 µg/mL) | > 150 | > 150 | > 150 | – | – | – |
| CC1=C(C)CC(CC(C)NCc2ccccc2)CC1 (stereo not shown) [B162, N-benzyl-1-(3,4-dimethylcyclohex-3-en-1-yl)propan-2-amine] | > 150 | 300 (≈ 77.2 µg/mL) | > 500 | > 150 | – | – | – |
| COC(=O)c1occc1COc1ccccc1CNC(C)CC1CCCCC1 (stereo not shown) [B265] | 91 (≈ 35.1 µg/mL) | – | – | 91 (≈ 35.1 µg/mL) | 3 (≈ 1.16 µg/mL) | 150 (≈ 57.8 µg/mL) | – |
| OC(CNCc1ccccc1)c1cccc2ccccc12 (stereo not shown) [B19] | – | – | – | – | – | – | MIC (H37RvMA; WT H37Rv MTB): 150 µM (≈ 41.6 µg/mL); MIC E. coli delta-TolC LB Media (E. coli; E. coli delta-TolC, LB media, OD600): >150 µM; MIC WT E. coli LB Media (E. coli; WT E. coli, LB media, OD600): >150 µM; MIC A. baumannii LB Media (A. baumannii; A. baumannii, LB media, OD600): >150 µM |
| COc1ccc(CC(C)NCc2ccccc2)cn1 (stereo not shown) [B68] | – | > 150 | > 150 | > 150 | – | – | MIC (H37RvMA; [5]): > 150 µM |
| C1=C(CCNCc2ccccc2)CCCCC1 [B71] | 91 (≈ 20.9 µg/mL) | 90 (≈ 20.6 µg/mL) | 150 (≈ 34.4 µg/mL) | > 150 | – | – | – |
